Read-outs that look alike come from different tables or passages of the source. Marks after values point to notes of the source that are not given here.
Test system: MDD patients carrying the indicated conditions
Procedure: Folate levels are classified as either low (<=2.5 ng/ml) or normal; and homocysteine levels as either normal or elevated (>=[…]). The presence or absence of at least one […] allele for the MTHFR gene are entered as a dichotomous variable (present or absent). […] Using folate as an example predicator, the presence or absence of a low serum-folate level along with treatment assignment can be entered in a 2×2, factorial ANOVA, using depression improvement scores (baseline minus endpoint HAM-D-17 scores) as the dependant variable. […] Similar analyses (i.e. separate 2×2 ANOVA's) can be performed substituting the presence of low folate levels for the presence of other predictors as described herein. Similarly, the effect of other predictors can be indicated by the interaction term representing the potential modulating influence of those variables.
Particularly, specific genetic and biomarkers that were assessed include the following: • (a) BMI calculation of at least about 30 kg/m^2; • (b) an expression ratio of SAM/SAH smaller than 2.8 (e.g., 2.71) as measured in a plasma sample; • (c) a level of 4-HNE no less than 3.28 μg/mL (as measured in a plasma sample); • (d) presence of rare variants CT or TT at position 677 of SEQ ID NO: 1 corresponding to a portion of a genomic nucleic acid sequence of methylenetetrahydrofolate reductase (MTHFR) (abbreviated as “MTHFR 677” below); • (e) presence of rare variants AG or GG at position 2756 of SEQ ID NO: 2 corresponding to a portion of genomic nucleic acid sequence of methionine synthase (MTR) (abbreviated as “MTR 2756” below); and • (f) presence of rare variants AG or GG at position 66 of SEQ ID NO: 3 corresponding to a portion of genomic nucleic acid sequence of methionine synthase reductase (MTRR) (abbreviated as “MTRR 66” below).
The efficacy effect is determined by measuring the mean change in the HAMD-17 score and HAMD-28 score by the end of Phase I and Phase II, as compared to the baseline.

[1] = Pooled phases, interaction of BMI with the treatment, with SSRI
[2] = Pooled phases, interaction of HNE-his with the treatment, with SSRI
[3] = Pooled phases, interaction of SAM/SAH with the treatment, with SSRI

CN1c2c(nc(N)[nH]c2=O)NC[C@@H]1CNc1ccc(C(=O)N[C@@H](CCC(=O)O)C(=O)O)cc1 [6(S)-5-MTHF, 6(S)-5-methyltetrahydrofolate]
Effect, change in HAMD-17 score (Pooled phases, MTHFR 677 CC and MTR 2756 AA (29,13), with SSRI): 0.722 | Effect, change in HAMD-28 score (Pooled phases, MTHFR 677 CC and MTR 2756 AA, with SSRI): 0.711 | Effect, change in HAMD-17 score (Pooled phases, MTHFR 677 CT or TT and BMI >= 30 kg/m^2 (13,6), with SSRI): −8.090 | Effect, change in HAMD-28 score (Pooled phases, MTHFR 677 CT or TT and BMI >= 30 kg/m^2, with SSRI): −9.884 | Effect, change in HAMD-17 score (Pooled phases, MTHFR 677 CT or TT and HNE-His >= median (11,6), with SSRI): −9.446 | Effect, change in HAMD-28 score (Pooled phases, MTHFR 677 CT or TT and HNE-His >= median, with SSRI): −9.865 | Effect, change in HAMD-17 score (Pooled phases, MTHFR 677 CT or TT and MTR 2756 AG or GG (8,4), with SSRI): −18.71 | Effect, change in HAMD-28 score (Pooled phases, MTHFR 677 CT or TT and MTR 2756 AG or GG, with SSRI): −23.29 | Effect, change in HAMD-17 score (Pooled phases, MTR 2756 AA (45,21), with SSRI): −0.590 | Effect, change in HAMD-17 score (Pooled phases, MTR 2756 AA and BMI < 30 kg/m^2 (17,7), with SSRI): 3.196 | Effect, change in HAMD-28 score (Pooled phases, MTR 2756 AA and BMI < 30 kg/m^2, with SSRI): 3.352 | Effect, change in HAMD-17 score (Pooled phases, MTR 2756 AA and HNE-His < median (26,13), with SSRI): 1.319 | Effect, change in HAMD-28 score (Pooled phases, MTR 2756 AA and HNE-His < median, with SSRI): 2.085 | Effect, change in HAMD-17 score (Pooled phases, MTR 2756 AA and MTRR 66 AA (11,5), with SSRI): −1.373 | Effect, change in HAMD-17 score (Pooled phases, MTR 2756 AA and MTRR 66 AA and HNE-His < median (6,4), with SSRI): 0.466 | Effect, change in HAMD-28 score (Pooled phases, MTR 2756 AA and MTRR 66 AA and HNE-His < median = 3.28 (plasma sample), with SSRI): −2.221 | Effect, change in HAMD-17 score (Pooled phases, MTR 2756 AA and MTRR 66 AA and SAM/SAH >= median (6,3), with SSRI): −3.98* | Effect, change in HAMD-28 score (Pooled phases, MTR 2756 AA and MTRR 66 AA and SAM/SAH >= median, with SSRI): −3.74* | Effect, change in HAMD-28 score (Pooled phases, MTR 2756 AA and MTRR 66 AA, with SSRI): −3.032 | Effect, change in HAMD-17 score (Pooled phases, MTR 2756 AA and SAM/SAH >= median (24,12), with SSRI): 0.054 | Effect, change in HAMD-28 score (Pooled phases, MTR 2756 AA and SAM/SAH >= median, with SSRI): −0.071 | Effect, change in HAMD-28 score (Pooled phases, MTR 2756 AA, with SSRI): −0.047 | Effect, change in HAMD-17 score (Pooled phases, MTR 2756 AG or GG and BMI >= 30 kg/m^2 (10,5), with SSRI): −11.714 | Effect, change in HAMD-28 score (Pooled phases, MTR 2756 AG or GG and BMI >= 30 kg/m^2, with SSRI): −14.433 | Effect, change in HAMD-17 score (Pooled phases, MTR 2756 AG or GG and HNE-His >= median (13,7), with SSRI): −8.072 | Effect, change in HAMD-28 score (Pooled phases, MTR 2756 AG or GG and HNE-His >= median = 3.28 (plasma sample), with SSRI): −9.508 | Effect, change in HAMD-17 score (Pooled phases, MTR 2756 AG or GG and MTRR 66 AG or GG (15,7), with SSRI): −6.976 | Effect, change in HAMD-17 score (Pooled phases, MTR 2756 AG or GG and MTRR 66 AG or GG and BMI >= 30 kg/m^2 (8,4), with SSRI): −10.972 | Effect, change in HAMD-28 score (Pooled phases, MTR 2756 AG or GG and MTRR 66 AG or GG and BMI >= 30 kg/m^2, with SSRI): −15.347 | Effect, change in HAMD-17 score (Pooled phases, MTR 2756 AG or GG and MTRR 66 AG or GG and HNE-His >= median (10,4), with SSRI): −7.942 | Effect, change in HAMD-28 score (Pooled phases, MTR 2756 AG or GG and MTRR 66 AG or GG and HNE-His >= median, with SSRI): −10.241 | Effect, change in HAMD-28 score (Pooled phases, MTR 2756 AG or GG and MTRR 66 AG or GG, with SSRI): −9.348 | Effect, change in HAMD-17 score (Pooled phases, MTR 2756 AG or GG and SAM/SAH < median (10,4), with SSRI): −5.583 | Effect, change in HAMD-28 score (Pooled phases, MTR 2756 AG or GG and SAM/SAH < median = 2.71 (plasma sample), with SSRI): −11.683 | Effect, change in HAMD-17 score (Pooled phases, MTR 2756 AG/GG (20,11), with SSRI): −5.677 | Effect, change in HAMD-28 score (Pooled phases, MTR 2756 AG/GG, with SSRI): −8.243 | Effect, change in HAMD-17 score (Pooled phases, MTRR 66 AA and HNE-His < median (8,5), with SSRI): 2.575 | Effect, change in HAMD-28 score (Pooled phases, MTRR 66 AA and HNE-His < median = 3.28 (plasma sample), with SSRI): −2.626 | Effect, change in HAMD-17 score (Pooled phases, MTRR 66 AA and SAM/SAH >= median (9,6), with SSRI): −2.978 | Effect, change in HAMD-28 score (Pooled phases, MTRR 66 AA and SAM/SAH >= median, with SSRI): −1.221 | Effect, change in HAMD-17 score (Pooled phases, MTRR 66 AG or GG and HNE-His >= median (24,11), with SSRI): −4.850 | Effect, change in HAMD-17 score (Pooled phases, MTRR 66 AG or GG and SAM/SAH < median (24,10), with SSRI): −5.879 | Effect, change in HAMD-28 score (Pooled phases, MTRR 66 AG or GG and SAM/SAH < median = 2.71 (plasma sample), with SSRI): −6.579 | Effect, change in HAMD-17 score (Pooled phases, SAM/SAH < median and HNE-His >= median (19,7), with SSRI): −9.898 | Effect, change in HAMD-28 score (Pooled phases, SAM/SAH < median and HNE-His >= median, with SSRI): −9.500 | Effect, change in HAMD-17 score (Pooled phases, SAM/SAH >= median and HNE-His < median (18,8), with SSRI): 2.107 | Effect, change in HAMD-28 score (Pooled phases, SAM/SAH >= median and HNE-His < median, with SSRI): 2.413 | Effect, change in HAMD-17 score: BMI*treat [1]: −0.233 | Effect, change in HAMD-28 score: BMI*treat [1]: −0.270 | Effect, change in HAMD-17 score: HNE-his*treat [2]: 0.626 | Effect, change in HAMD-28 score: HNE-his*treat [2]: 0.685 | Effect, change in HAMD-17 score: SAM/SAH*treat [3]: 0.882 | Effect, change in HAMD-28 score: SAM/SAH*treat (last line) [3]: 1.112 | Effect, change in HAMD-17 score: baseHAMD-17*treat (Pooled phases, interaction of base HAMD-17 with the treatment, with SSRI): −0.025 | Effect, change in HAMD-28 score: SAM/SAH*treat (first line under HAMD28) (Pooled phases, interaction with the treatment, with SSRI): 0.882 | improvement in HDRS-28 or CGI-S, patients with at least one T allele at MTHFR 677 vs no T allele (in words) (in combination with an SSRI, FIGS. 4A-4B): greater degree of improvement | improvement in HAMD-28 or CGI-S, obese (BMI at least 30 kg/m^2) vs non-obese patients (in words) (in combination with an SSRI, FIGS. 5A-5B): greater degree of improvement
